Experimental data reported in ChEMBL document CHEMBL1155212, “Discovery and structure-activity relationships of a novel class of quinazoline glucokinase activators” (Bioorg Med Chem Lett, 2009).

Legend:
[1] = physchem; settings: buffer, pH 7.4
[2] = Cmax in Sprague-Dawley rat at 3 mg/kg; type: ADME, organism-based; design: dose 3 mg/kg; settings: in vivo
[3] = Plasma clearance in Sprague-Dawley rat at 1 mg/kg, iv; type: ADME, organism-based; design: dose 1 mg/kg, route intravenous
[4] = Half life in Sprague-Dawley rat at 1 mg/kg, iv; type: ADME, organism-based; design: dose 1 mg/kg, route intravenous; settings: in vivo
[5] = Tmax in Sprague-Dawley rat at 3 mg/kg; type: ADME, organism-based; design: dose 3 mg/kg; settings: in vivo
[6] = AUC (0 to infinity) in Sprague-Dawley rat at 1 mg/kg, iv; type: ADME, organism-based; design: time infinity, dose 1 mg/kg, route intravenous; settings: plasma
[7] = Oral bioavailability in Sprague-Dawley rat at 3 mg/kg; type: ADME, organism-based; settings: in vivo
[8] = Volume of distribution at steady state in Sprague-Dawley rat at 1 mg/kg, iv; type: ADME, organism-based; design: dose 1 mg/kg, route intravenous; settings: in vivo, read-out: Vdss
[9] = AUC (0 to infinity) in Sprague-Dawley rat at 3 mg/kg; type: ADME, organism-based; design: dose 3 mg/kg, time infinity; settings: plasma

| Compound | logD [1] | also measured |
| --- | --- | --- |
| Cn1ccc(Nc2ncnc3ccc(Oc4ccccn4)cc23)n1 | 2.1 |  |
| Cn1ccc(Nc2ncnc3ccc(Oc4ncccc4CO)cc23)n1 | 1.7 |  |
| Cn1ccc(Nc2ncnc3ccc(Oc4c(Cl)cccc4S(C)(=O)=O)cc23)n1 | 2.3 |  |
| Cc1cccc(S(C)(=O)=O)c1Oc1ccc2ncnc(Nc3ccn(C)n3)c2c1 | 2.1 |  |
| Cc1csc(Nc2ncnc3ccc(Oc4ccccc4F)cc23)n1 | 5.8 |  |
| CN(C)C(=O)c1cccnc1Oc1ccc2ncnc(Nc3ccn(C)n3)c2c1 | 1.4 |  |
| Cn1ccc(Nc2ncnc3ccc(Oc4ccccc4S(C)(=O)=O)cc23)n1 | 1.9 |  |
| Cn1ccc(Nc2ncnc3ccc(Oc4ncccc4Br)cc23)n1 | 3.4 |  |
| Cn1ccc(Nc2ncnc3ccc(Oc4c(F)cccc4F)cc23)n1 | 3.7 |  |
| Cn1ccc(Nc2ncnc3ccc(Oc4ccncn4)cc23)n1 | 1.7 |  |
| Cn1ccc(Nc2ncnc3ccc(Oc4ccc(F)cc4F)cc23)n1 | 3.6 |  |
| Cc1csc(Nc2ncnc3ccc(Oc4ccc(F)cc4)cc23)n1 | 5.8 |  |
| Cn1ccc(Nc2ncnc3ccc(Oc4ncccc4F)cc23)n1 | 2.4 |  |
| Cc1nsc(Nc2ncnc3ccc(Oc4c(F)cccc4S(C)(=O)=O)cc23)n1 | 3.1 |  |
| Cc1csc(Nc2ncnc3ccc(Oc4ccccc4S(C)(=O)=O)cc23)n1 | 4.3 |  |
| Cc1cccc(C#N)c1Oc1ccc2ncnc(Nc3ccn(C)n3)c2c1 | 3.4 |  |
| Cn1ccc(Nc2ncnc3ccc(Oc4ncccc4Cl)cc23)n1 | 2.9 |  |

Continued, in another order:

| logD [1] | Compound | also measured |
| --- | --- | --- |
| 2 | CS(=O)(=O)c1cccc(F)c1Oc1ccc2ncnc(Nc3cccnn3)c2c1 |  |
| 1.9 | Cn1ccc(Nc2ncnc3ccc(Oc4c(F)cccc4S(C)(=O)=O)cc23)n1 | Cmax [2]: 5.8 µM; clearance [3]: 6.8 mL/min/kg; half-life [4]: 1.3 h; Tmax [5]: 0.9 h; AUC(0-inf) [6]: 6.3 µM·h; bioavailability [7]: 71%; Vd [8]: 0.5 L/kg; AUC(0-inf) [9]: 13.3 µM·h |
| 3.6 | CS(=O)(=O)c1cccc(F)c1Oc1ccc2ncnc(Nc3ccccn3)c2c1 |  |
| 2.4 | CCn1ccc(Nc2ncnc3ccc(Oc4c(F)cccc4S(C)(=O)=O)cc23)n1 |  |
| 2.5 | Cc1cnc(Nc2ncnc3ccc(Oc4c(F)cccc4S(C)(=O)=O)cc23)cn1 |  |
| 1.8 | CS(=O)(=O)c1cccc(F)c1Oc1ccc2ncnc(Nc3cc[nH]n3)c2c1 |  |
| 2.2 | CS(=O)(=O)c1cccc(F)c1Oc1ccc2ncnc(Nc3cnccn3)c2c1 |  |
